# Test results reported in patent US5409898A, “Compositions and methods for treating infections caused by organisms sensitive to β-lactam antibiotics” (priority 1994, dated 1995).
# Where two headings read alike, the source gives them in different places. Non-standard residues stand in square brackets, D forms with d. Residues, ends and D or L forms follow the SMILES beside them. No end group written: not given here. Orn = NCCC[C@H](N)C(=O)O
# Columns and labels:
# E. coli ATCC 25922 = test: Serum bactericidal assay in 40% pooled normal human serum (magainin 2 with antibiotics); assay type: cell-based, Escherichia coli; conditions: for synergy of antibiotic with magainin 2: 1/32, 1/16, 1/8 MIC antibiotic, 200 μg/ml magainin 2, 40% pooled normal human serum
# E. coli H16 [1] = test: In vivo protection of neutropenic mice from systemic E. coli H16 infection (C-13 peptide analogs)
# From the text: The ability of C-13 peptide analogs and cefepime combinations to protect mice from a lethal infection of E. coil was examined. Mice were made neutropenic by an injection of cyclophosphamide and then challenged with E. coli. Mice were then divided into four groups: (1) mice that were given PBS; (2) were given C-13 peptide analogs only; (3) were given cefepime only; and (4) were given a combination of C-13 peptide analogs and cefepime.
# Male CrL:CF1 mice were made neutropenic five days prior to bacterial challenge. Neutropenia was induced by subcutaneous injection of 250 mg/kg Cytoxan (cyclophosphamide). The mice were challenged with either 2×10^4 E. coli H16 (Table 4) or 5×10^4 A645AP by intraperitoneal injection. Mice were divided into four treatment groups: (1) PBS; (2) C-13 peptide analog (15 mg/kg); (3) cefepime (0.1 mg/kg); (4) a combination treatment of cefepime and C-13 peptide analog (0.1 mg/kg cefepime and 15 mg/kg C-13 peptide analog) that were combined prior to injection. All injections were made in PBS (0.2 ml) and were administered intramuscularly with each injection in separate legs, one and 3.5 hours after bacterial challenge. The survival of the mice was monitored for ten days and the results analyzed by the Fisher Exact test.
# human red blood cells = test: Hemolysis assay; assay type: cell-based
# [2] = test system: endothelial cell proliferation; conditions: Maione et al., 1990; cited from earlier work
# E. coli H16 [3] = test: In vivo protection of neutropenic mice from lethal E. coli H16 infection (magainin 2, C-13 peptide, cefepime, amikacin); conditions: magainin 2 two injections 1 mg/mouse; amikacin two injections of 3 mg/kg
# Description: The ability of magainin and cefepime combinations to protect mice from a lethal infection of E. coli was examined. Mice were made neutropenic by injection of Cytoxan and then challenged with E. coli. Mice were then divided into four different groups: (1) mice that were given no further treatment; (2) were given magainin 2 or C-13 peptide only; (3) were given cefepime only and (4) were given a combination of magainin 2 or C-13 peptide and cefepime. […] When amikacin, an aminoglycoside, was tested in similar experiments, no in vitro bactericidal activity or in vivo protection was found.
# Mice were made neutropenic five days prior to bacterial challenge. Neutropenia was induced by subcutaneous injection of 250 mg/kg Cytoxan (cyclophosphamide). The mice were challenged with 2×10^4 E. coli H16. Challenge was by intraperitoneal injection. […] The survival of the mice was monitored for a period of at least 10 days
# [4] = test system: E. COLI A645 (ATCC 25922); test: In vitro bactericidal activity (ID50) of cationic oligopeptides, serum bactericidal assay; assay type: cell-based, Escherichia coli
# Description: Cells were diluted without washing to 5×10^4 cells/ml gelatin-veronel buffer (GBV++) and 0.05 ml was added to serum (see section 7.1.3.) in a 1.5 ml Eppendorf vial. For those bacterial cells pregrown in cefepime, the same amount of cefepime that was present during growth was added for both the preparation and examination of bactericidal activity. […] Peptides were diluted in deionized water to make a stock solution of 2 mg/ml and added to the reaction vial to give the appropriate concentration. The total reaction volume was 0.25 ml.
# [5] = neutropenic mice, 2×10^4 E. coli H16 i.p., peptide 15 mg/kg, cefepime 0.1 mg/kg i.m. at one and 3.5 hours, ten days
compound,measurement,setting,value
C[C@H]1[C@H](NC(=O)/C(=N\OC(C)(C)C(=O)O)c2csc(N)n2)C(=O)N1S(=O)(=O)O [aztreonam],synergy of antibiotic with magainin 2,E. coli ATCC 25922,synergistic
same,"mice survived (out of total), aztreonam experiment",E. coli H16 [1]; similar experiments with aztreonam,one out of 20
"ALYKKLLKKLLKSAKKLG [analog G, Ala--Leu--Tyr--Lys--Lys--Leu--Leu--Lys--Lys--Leu--Leu--Lys--Ser--Ala--Lys--Lys--Leu--Gly]",RBC LYSIS (%) (100 μG/ML),human red blood cells,< 1%
same,change in the amount of RBC lysis,human red blood cells,no increase
"MGN 1: magainin 1, 23 amino acid cationic oligopeptide from skin secretions of Xenopus laevis (GIGKFLHSAGKFGKAFVGEIMKS; Magainin-1; UniProt P11006 37-59, looked up)",MGN killing of untreated bacteria,"E. coli ATCC 25922; untreated bacteria, 40% PNHS",blocked the action
"ALYKKIIKKLLESAKKLG [analog H, Ala--Leu--Tyr--Lys--Lys--Ile--Ile--Lys--Lys--Leu--Leu--Glu--Ser--Ala--Lys--Lys--Leu--Gly]",RBC LYSIS (%) (100 μG/ML),human red blood cells,1.5%
"CC(C)C[C@@H](NC(=O)[C@@H](C)N)C(=O)N[C@H](Cc1ccc(O)cc1)C(=O)N[C@H](CCCCN)C(=O)N[C@H](CCCCN)C(=O)N[C@H](CC(C)C)C(=O)N[C@H](CC(C)C)C(=O)N[C@H](CCCCN)C(=O)N[C@H](CCCCN)C(=O)N[C@H](CC(C)C)C(=O)N[C@H](CC(C)C)C(=O)N[C@H](CCCCN)C(=O)N[C@H](CO)C(=O)N[C@H](C)C(=O)N[C@H](CCCCN)C(=O)N[C@H](CCCCN)C(=O)N[C@H](CC(C)C)C(=O)NCC(=O)O [analog X, dAla--dLeu--dTyr--dLys--dLys--dLeu--dLeu--dLys--dLys--dLeu--dLeu--dLys--dSer--dAla--dLys--dLys--dLeu--Gly] (H-[dA][dL][dY][dK][dK][dL][dL][dK][dK][dL][dL][dK][dS][dA][dK][dK][dL]G-OH)",RBC LYSIS (%) (100 μG/ML),human red blood cells,< 1%
"ALYKKLLKKLLKFAKKFG [analog P, Ala--Leu--Tyr--Lys--Lys--Leu--Leu--Lys--Lys--Leu--Leu--Lys--Phe--Ala--Lys--Lys--Phe--Gly]",RBC LYSIS (%) (100 μG/ML),human red blood cells,21%
"C-11: human platelet factor-4 peptide, amino acids 58-68 (PLYKKIIKKLL; UniProt P02776 89-99, looked up, fragment)",inhibitory action compared with C-13,[2],less inhibitory
"AKKLAKLYKKLLKKLLKSAKKLG [analog J, Ala--Lys--Lys--Leu--Ala--Lys--Leu--Tyr--Lys--Lys--Leu--Leu--Lys--Lys--Leu--Leu--Lys--Ser--Ala--Lys--Lys--Leu--Gly]",RBC LYSIS (%) (100 μG/ML),human red blood cells,2.5%
same,change in the amount of RBC lysis,human red blood cells,increased the amount of RBC lysis
O=C(O)c1cn(C2CC2)c2cc(N3CCNCC3)c(F)cc2c1=O [ciprofloxacin],synergy of antibiotic with magainin 2,E. coli ATCC 25922,"neither Amikacin, an aminoglycoside and ciproflaxacin, a quinoline were synergistic"
"ALYKKLLKKLLKKAKKLG [analog KK, Ala--Leu--Tyr--Lys--Lys--Leu--Leu--Lys--Lys--Leu--Leu--Lys--Lys--Ala--Lys--Lys--Leu--Gly]",RBC LYSIS (%) (100 μG/ML),human red blood cells,< 1%
"CC(C)C[C@H](NC(=O)[C@H](C)N)C(=O)N[C@@H](Cc1ccc(O)cc1)C(=O)N[C@@H](CCCN)C(=O)N[C@@H](CCCN)C(=O)N[C@@H](CC(C)C)C(=O)N[C@@H](CC(C)C)C(=O)N[C@@H](CCCN)C(=O)N[C@@H](CCCN)C(=O)N[C@@H](CC(C)C)C(=O)N[C@@H](CC(C)C)C(=O)N[C@@H](CCCN)C(=O)N[C@@H](CO)C(=O)N[C@@H](C)C(=O)N[C@@H](CCCN)C(=O)N[C@@H](CCCN)C(=O)N[C@@H](CC(C)C)C(=O)NCC(=O)O [analog II, Ala--Leu--Tyr--Orn--Orn--Leu--Leu--Orn--Orn--Leu--Leu--Orn--Ser--Ala--Orn--Orn--Leu--Gly] (H-ALY[Orn][Orn]LL[Orn][Orn]LL[Orn]SA[Orn][Orn]LG-OH)",RBC LYSIS (%) (100 μG/ML),human red blood cells,< 1%
"ALYRRLLRRLLRSARRLG [analog HH, Ala--Leu--Tyr--Arg--Arg--Leu--Leu--Arg--Arg--Leu--Leu--Arg--Ser--Ala--Arg--Arg--Leu--Gly]",RBC LYSIS (%) (100 μG/ML),human red blood cells,3%
"C-12: human platelet factor-4 peptide, amino acids 58-69 (PLYKKIIKKLLE; UniProt P02776 89-100, looked up, fragment)",inhibitory action compared with C-13,[2],less inhibitory
"ALYKKLLKKLLESAKKLG [analog F, Ala--Leu--Tyr--Lys--Lys--Leu--Leu--Lys--Lys--Leu--Leu--Glu--Ser--Ala--Lys--Lys--Leu--Gly]",RBC LYSIS (%) (100 μG/ML),human red blood cells,< 1%
NCC[C@H](O)C(=O)N[C@@H]1C[C@H](N)[C@@H](O[C@H]2O[C@H](CN)[C@@H](O)[C@H](O)[C@H]2O)[C@H](O)[C@H]1O[C@H]1O[C@H](CO)[C@@H](O)[C@H](N)[C@H]1O [amikacin],"mice survived (out of total), amikacin experiment",E. coli H16 [3],three out of 10
same,synergy of antibiotic with magainin 2,E. coli ATCC 25922,"neither Amikacin, an aminoglycoside and ciproflaxacin, a quinoline were synergistic"
"C-10: human platelet factor-4 peptide, amino acids 58-67 (PLYKKIIKKL; UniProt P02776 89-98, looked up, fragment)",inhibitory action compared with C-13,[2],Little inhibitory action
CC(C)(O/N=C(\C(=O)N[C@@H]1C(=O)N2C(C(=O)[O-])=C(C[n+]3ccccc3)CS[C@H]12)c1csc(N)n1)C(=O)O [ceftazidime],synergy of antibiotic with magainin 2,E. coli ATCC 25922,synergistic
C[C@@H](O)[C@H]1C(=O)N2C(C(=O)O)=C(SCCN=CN)C[C@H]12 [imipenem],synergy of antibiotic with magainin 2,E. coli ATCC 25922,synergistic
"PLYKKIIKKLLES [C-13, Pro--Leu--Tyr--Lys--Lys--Ile--Ile--Lys--Lys--Leu--Leu--Glu--Ser]",RBC LYSIS (%) (100 μG/ML),human red blood cells,< 1%
"KWKLYKKLLKKLLKSAKKLG [analog N, Lys--Trp--Lys--Leu--Tyr--Lys--Lys--Leu--Leu--Lys--Lys--Leu--Leu--Lys--Ser--Ala--Lys--Lys--Leu--Gly]",RBC LYSIS (%) (100 μG/ML),human red blood cells,7.5%
Cecropin,ID50 1/4 MIC CEFEPIME NHS,"[4]; 1/4 MIC cefepime, NHS",.25 µg/mL
same,ID50 1/4 MIC CEFEPIME HI-NHS,"[4]; 1/4 MIC cefepime, heat inactivated NHS",.5 µg/mL
same,ID50 NO CEFEPIME NHS,"[4]; no cefepime, NHS",1 µg/mL
same,ID50 NO CEFEPIME HI-NHS,"[4]; no cefepime, heat inactivated NHS",1 µg/mL
same,protection from systemic E. coli H16 infection,E. coli H16 [1]; Fisher Exact test,no significant increase in protection
same,% Survival,E. coli H16 [1]; [5],20%
same,Number--Survived/Total,E. coli H16 [1]; [5],2/20
same,RBC LYSIS (%) (100 μG/ML),"human red blood cells; 100 μG/ML peptide, 37° C. for 45 minutes",< 1%
